# Active and inactive are the calls of the source.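 How the source made its calls: active means compounds whose half-maximal inhibitory concentration of the SKN-1 reporter ratio in worms is 20 µM or lower; inactive means the rest.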
# Test system: C. elegans VP596 Pgst-4::GFP/RFP ratio, acrylamide-induced, 24 h
# Test: structure-activity of worm SKN-1 blockers – whole organism, GFP/RFP fluorescence ratio, strain VP596, SAR follow-up (AID 651996)
row,Structure (SMILES),IC50
1,O=C(/C=C/Nc1ccc(F)cc1F)c1ccco1,23.3 µM (inactive)
2,COc1cc(CNC(C)(C)CO)cc(Br)c1OCc1ccc(Cl)cc1,26.2 µM (inactive)
3,COc1ccc(C(=O)Nc2nc(-c3cccs3)cs2)cc1,28.9 µM (inactive)
4,Brc1ccc(CSc2nnc(-c3cccnc3)o2)cc1,19.1 µM
5,CCOc1cc(CNCCSc2nnnn2C)cc(Br)c1OCc1ccc(F)cc1,17 µM
6,O=C(/C=C/c1cccs1)c1ccc(Br)cc1,12.4 µM
7,O=C(/C=C/c1ccccc1)Nc1ccc(CN2CCOCC2)cc1,14.8 µM
8,O=C(Nc1ccc(CN2CCOCC2)cc1)c1cc2ccccc2o1,18 µM
9,O=C(Nc1nc(-c2ccccc2)cs1)c1cccs1,16.9 µM
10,O=C(/C=C/Nc1ccccc1F)c1cccs1,23.2 µM (inactive)
11,Clc1ccccc1-c1nnc(-c2ccccc2Cl)o1,24.9 µM (inactive)
12,c1ccc2oc(SCc3nc4ccccc4s3)nc2c1,15.5 µM
13,COc1cc(CNC(C)c2ccccc2)cc(Br)c1OCc1ccc(F)cc1 (configuration not stated),> 64 µM (inactive)
14,Cc1oc(-c2ccc(-c3ccccc3)cc2)nc1CN(C)C1CCOC1 (configuration not stated),15.5 µM
15,O=C(/C=C/Nc1ccc(Br)cc1F)c1ccco1,12.2 µM
16,O=C(/C=C/Nc1ccc(F)c(F)c1)c1cccs1,14.3 µM
17,O=C(Nc1nc(-c2ccc(Cl)s2)cs1)c1cccs1,58.9 µM (inactive)
18,Cc1ccc(Nc2nc(-c3cccs3)cs2)nc1,21.8 µM (inactive)
19,O=C(Nc1nc(-c2ccc(Cl)s2)cs1)c1ccccc1,13 µM
20,Cc1ccc(CSc2nnc(-c3ccco3)o2)cc1,22.7 µM (inactive)
21,O=C(Nc1nc2c(ccc3ccccc32)s1)c1ccco1,16.9 µM
22,O=C(/C=C/Nc1ccc(F)c(Cl)c1)c1ccco1,12.5 µM
23,Brc1ccc(-c2nnc(-c3ccco3)o2)cc1,13.8 µM
24,Clc1ccc(-c2nnc(-c3ccco3)o2)cc1,14.3 µM
25,c1ccc(Nc2nc(-c3cccs3)cs2)nc1,13.8 µM
26,Cc1ccc(N=C/C(C(=O)C(F)(F)F)=C(\O)c2ccco2)cc1Cl,33.1 µM (inactive)

# Continued by falling IC50, values first:
row,IC50,Structure (SMILES)
1,11.8 µM,CCc1ccc(-c2nc(-c3ccncc3)no2)cc1
2,10.9 µM,CCOC(=O)c1c(-c2ccc(-c3ccccc3)cc2)csc1NC(=O)CNCCN(C)C
3,10.7 µM,Cc1ccc(-c2noc(-c3cccs3)n2)cc1
4,10.5 µM,c1ccc2sc(SCc3ccc(-c4nnco4)cc3)nc2c1
5,9.89 µM,CCOc1ccc(-c2nc(-c3cccnc3)no2)cc1
6,9.86 µM,CCOc1cc(CNC2CCCC2)cc(Cl)c1OCc1ccccc1
7,9.32 µM,CSc1cccc(NC(=O)c2cccc3cccnc23)c1
8,9.32 µM,O=C(/C=C/c1ccc(Br)cc1)c1ccc(NC2=NCCCS2)cc1
9,8.95 µM,O=C(Nc1nc(-c2ccc(Cl)s2)cs1)c1ccco1
10,8.93 µM,Clc1ccc(Nc2nc(-c3cccs3)cs2)nc1
11,8.64 µM,Brc1ccc(-c2nc(-c3ccccc3)no2)o1
12,8.44 µM,O=C(/C=C/Nc1ccc(F)cc1F)c1cccs1
13,8.17 µM,c1ccc(-c2csc(Nc3ccccn3)n2)cc1
14,7.94 µM,Clc1ccccc1-c1nc(-c2ccncc2)no1
15,7.88 µM,Cc1nc2ccccc2cc1OCc1ccc(F)cc1
16,7.39 µM,c1ccc(SCc2cc(-c3ccccc3)no2)cc1

row,IC50,Structure (SMILES)
1,7.34 µM,c1ccc(-c2csc(-c3ccncc3)n2)cc1
2,7.21 µM,COc1cc(CNC2CCCC2)cc(Cl)c1OCc1ccc(F)cc1
3,7.19 µM,Cc1cc(OCc2cccc(Cl)c2)c(C)cc1CN1CCOCC1
4,7.06 µM,Brc1ccc(CSc2nnc(-c3ccco3)o2)cc1
5,6.84 µM,O=C(Nc1nccs1)c1ccc2ccccc2n1
6,6.42 µM,Cc1ccccc1-c1noc(-c2cccs2)n1
7,6.15 µM,c1ccc(-c2nc(-c3ccncc3)no2)cc1
8,4.74 µM,CC(C)c1ccc(C(=O)Nc2ccc(CN3CCOCC3)cc2)cc1
9,4.63 µM,CCOC(=O)Nc1nc(-c2ccc(F)cc2F)cs1
10,4.49 µM,CCOc1cc(CNC2CCCC2)cc(Cl)c1OCc1ccc(F)cc1
11,4.14 µM,Fc1ccc(COc2ccc(-c3nnco3)cc2)cc1
12,3.81 µM,Fc1ccc(-c2csc(Nc3ccccn3)n2)cc1
13,2.25 µM,Fc1ccc(COc2ccc(-c3nnco3)cc2)c(Cl)c1
14,1.58 µM,Fc1ccc(-c2csc(-c3ccncc3)n2)cc1
15,0.64 µM,Clc1ccc(-c2nnc(-c3ccccc3)o2)c(Cl)c1

# Reference: PubChem BioAssay AID651996 (Sanford-Burnham Center for Chemical Genomics, 2013)
